This note sets out measurements from ChEMBL document CHEMBL1129770 (Bioorg Med Chem Lett, 1996).

Starred links: 1 amine or outer side, 2 acyl side, 3 side chain; linkers in the order of their positions; H or OH if unused. Residues, ends and D or L forms follow the SMILES beside them. Suc = O=C(CCC(=O)[*:2])[*:1] A value given as a limit tells only on which side of the number the result lay.

The target of assay [1] is T1, Endothelin receptor type B (Sus scrofa, UniProt P35463).
T1 sequence (P35463 whole entry): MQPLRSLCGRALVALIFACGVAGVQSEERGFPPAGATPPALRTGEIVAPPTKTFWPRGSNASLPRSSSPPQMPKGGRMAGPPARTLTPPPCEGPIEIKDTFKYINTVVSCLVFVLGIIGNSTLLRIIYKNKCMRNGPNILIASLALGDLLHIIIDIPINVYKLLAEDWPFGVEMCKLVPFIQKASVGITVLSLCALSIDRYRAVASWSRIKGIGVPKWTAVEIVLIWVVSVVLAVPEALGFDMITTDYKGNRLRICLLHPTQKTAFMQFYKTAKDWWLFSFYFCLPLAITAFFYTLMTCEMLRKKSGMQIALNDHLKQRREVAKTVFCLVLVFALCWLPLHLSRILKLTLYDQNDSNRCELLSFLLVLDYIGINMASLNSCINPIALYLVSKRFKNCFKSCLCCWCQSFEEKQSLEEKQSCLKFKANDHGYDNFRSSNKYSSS
As to the kind of experiment: Ability to inhibit [125I]ET-3 binding to the Endothelin B receptor from porcine lung membranes was evaluated. Format: tissue-based.

For the next assay, the species on record is Bos taurus. As to the kind of experiment: Ability to inhibit 3H substance P binding to bovine retina was evaluated. Format: functional.
For another assay, the target named is T2, Endothelin-1 receptor (Sus scrofa, UniProt Q29010).
T2 sequence (Q29010 whole entry): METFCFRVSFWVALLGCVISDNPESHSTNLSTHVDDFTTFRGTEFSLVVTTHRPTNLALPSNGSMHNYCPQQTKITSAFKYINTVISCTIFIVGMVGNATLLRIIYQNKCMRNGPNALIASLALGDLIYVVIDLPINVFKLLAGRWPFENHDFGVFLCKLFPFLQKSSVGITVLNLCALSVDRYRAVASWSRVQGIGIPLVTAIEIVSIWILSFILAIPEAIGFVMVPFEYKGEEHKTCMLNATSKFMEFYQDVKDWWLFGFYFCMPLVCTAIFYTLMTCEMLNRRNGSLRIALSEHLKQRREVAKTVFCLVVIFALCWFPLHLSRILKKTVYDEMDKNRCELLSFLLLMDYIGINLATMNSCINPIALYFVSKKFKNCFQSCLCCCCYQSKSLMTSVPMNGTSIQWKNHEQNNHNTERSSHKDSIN
Briefly: Ability to inhibit [125I]ET1 binding to the Endothelin A receptor from porcine lung membranes was evaluated. Type of assay: tissue-based.

Usually Ki stands for the dissociation constant of the complex between target and ligand, obtained from inhibition or displacement. Low values mean higher affinity, high ones lower affinity. What is called IC50 is the concentration that inhibits the measured activity by half. Low readings indicate higher potency, high ones lower potency. `Cc1cc(C)cc(C(=O)N(C)[C@H](Cc2ccccc2)C(=O)NCCc2c[nH]c3ccccc23)c1`: affinity in assay [1] was put at a Ki of 5 nM. Further, the IC50 in the assay filed under Bos taurus was found to be 800 nM.
In assay [1], `O=C(N[C@@H](Cc1c[nH]c2ccccc12)C(=O)O)C1CC1c1ccccc1` (stereo not given in full) showed a Ki of 16 nM.
Consider `Cc1cc(C)cc(C(=O)N(C)[C@H](Cc2ccccc2)C(=O)N[C@@H](Cc2c[nH]c3ccccc23)C(=O)O)c1`, for which the Ki was determined as 36 nM in assay [1] and 11000 nM on Endothelin-1 receptor. This molecule had an IC50 in the assay filed under Bos taurus of 2000 nM.
`Cc1cc(C)cc(C(=O)N(C)[C@H](Cc2ccc(-c3ccccc3)cc2)C(=O)N[C@@H](Cc2c[nH]c3ccccc23)C(=O)O)c1`: the IC50 in the assay filed under Bos taurus was > 10000 nM.
In the case of `CC[C@H](C)[C@H](NC(=O)[C@H](CC(=O)O)NC(=O)[C@H](CC(C)C)NC(=O)[C@H](Cc1c[nH]cn1)NC(=O)[C@H](C)NC(=O)[C@H](Cc1ccccc1)NC(=O)[C@H](Cc1ccc(O)cc1)NC(=O)CNC(=O)[C@H](C)NC(=O)[C@H](CCC(=O)O)NC(=O)CCC(=O)O)C(=O)N[C@H](C(=O)N[C@@H](Cc1c[nH]c2ccccc12)C(=O)O)[C@@H](C)CC` (Suc-EAGYFAHLDIIW-OH), the values for the Ki (in assay [1]; at Endothelin-1 receptor) were 0.91 nM and 1300 nM, respectively.
Regarding `CC[C@H](C)[C@H](NC(=O)[C@H](CC(=O)O)NC(=O)[C@H](CC(C)C)NC(=O)[C@H](Cc1cnc[nH]1)NC(=O)[C@H](C)NC(=O)[C@H](Cc1ccccc1)NC(=O)CNC(=O)[C@@H](NC(=O)[C@H](C)NC(=O)[C@H](CCC(=O)O)NC(=O)CCC(=O)O)C(C)C)C(=O)N[C@H](C(=O)N[C@@H](Cc1c[nH]c2ccccc12)C(=O)O)[C@@H](C)CC` (Suc-EAVGFAHLDIIW-OH), the figures for the Ki (in assay [1]; on Endothelin-1 receptor) were 11 nM and 5000 nM, respectively.
For `CC[C@H](C)[C@H](NC(=O)[C@H](CC(=O)O)NC(=O)[C@H](CC(C)C)NC(=O)CNC(=O)[C@H](C)NC(=O)[C@H](Cc1ccccc1)NC(=O)[C@H](Cc1ccc(O)cc1)NC(=O)[C@@H](NC(=O)[C@H](C)NC(=O)[C@H](CCC(=O)O)NC(=O)CCC(=O)O)C(C)C)C(=O)N[C@H](C(=O)N[C@@H](Cc1c[nH]c2ccccc12)C(=O)O)[C@@H](C)CC` (Suc-EAVYFAGLDIIW-OH), the Ki in assay [1] is 1 nM; at Endothelin-1 receptor it was 250 nM.
The matching figures for `CC[C@H](C)[C@H](NC(=O)[C@H](CC(=O)O)NC(=O)CNC(=O)[C@H](Cc1c[nH]cn1)NC(=O)[C@H](C)NC(=O)[C@H](Cc1ccccc1)NC(=O)[C@H](Cc1ccc(O)cc1)NC(=O)[C@@H](NC(=O)[C@H](C)NC(=O)[C@H](CCC(=O)O)NC(=O)CCC(=O)O)C(C)C)C(=O)N[C@H](C(=O)N[C@@H](Cc1c[nH]c2ccccc12)C(=O)O)[C@@H](C)CC` (Suc-EAVYFAHGDIIW-OH): 5.9 nM and > 10000 nM.
In the case of `CC[C@H](C)[C@H](NC(=O)CNC(=O)[C@H](CC(=O)O)NC(=O)[C@H](CC(C)C)NC(=O)[C@H](Cc1cnc[nH]1)NC(=O)[C@H](C)NC(=O)[C@H](Cc1ccccc1)NC(=O)[C@H](Cc1ccc(O)cc1)NC(=O)[C@@H](NC(=O)[C@H](C)NC(=O)[C@H](CCC(=O)O)NC(=O)CCC(=O)O)C(C)C)C(=O)N[C@@H](Cc1c[nH]c2ccccc12)C(=O)O` (Suc-EAVYFAHLDGIW-OH), the Ki in assay [1] was 180 nM; at Endothelin-1 receptor it was > 10000 nM.
Regarding `CC[C@H](C)[C@H](NC(=O)[C@H](CC(=O)O)NC(=O)[C@H](CC(C)C)NC(=O)[C@H](Cc1cnc[nH]1)NC(=O)[C@H](C)NC(=O)[C@H](Cc1ccccc1)NC(=O)[C@H](Cc1ccc(O)cc1)NC(=O)[C@@H](NC(=O)[C@H](C)NC(=O)[C@H](CCC(=O)O)NC(=O)CCC(=O)O)C(C)C)C(=O)NCC(=O)N[C@@H](Cc1c[nH]c2ccccc12)C(=O)O` (Suc-EAVYFAHLDIGW-OH), the results for the Ki (in assay [1]; on Endothelin-1 receptor) were 5200 nM and > 10000 nM, respectively.
With `CC[C@H](C)[C@H](NC(=O)[C@H](CC(=O)O)NC(=O)[C@H](CC(C)C)NC(=O)[C@H](Cc1cnc[nH]1)NC(=O)[C@H](C)NC(=O)[C@H](Cc1ccccc1)NC(=O)[C@H](Cc1ccc(O)cc1)NC(=O)[C@@H](NC(=O)[C@H](C)NC(=O)[C@H](CCC(=O)O)NC(=O)CCC(=O)O)C(C)C)C(=O)N[C@H](C(=O)NCC(=O)O)[C@@H](C)CC` (Suc-EAVYFAHLDIIG-OH), the Ki (in assay [1]; on Endothelin-1 receptor) was > 10000 nM each time.
As for `CC[C@H](C)[C@H](NC(=O)[C@H](CC(=O)O)NC(=O)[C@H](CC(C)C)NC(=O)[C@H](Cc1c[nH]cn1)NC(=O)[C@H](C)NC(=O)[C@H](Cc1ccccc1)NC(=O)[C@H](Cc1ccc(O)cc1)NC(=O)[C@@H](NC(=O)[C@H](C)NC(=O)[C@H](CCC(=O)O)NC(=O)CCC(=O)O)C(C)C)C(=O)N[C@H](C(=O)N[C@@H](Cc1c[nH]c2ccccc12)C(=O)O)[C@@H](C)CC` (Suc-EAVYFAHLDIIW-OH), the Ki was determined as 0.077 nM in assay [1] and 620 nM at Endothelin-1 receptor.
For `CC[C@H](C)[C@H](NC(=O)CNC(=O)[C@H](CC(C)C)NC(=O)[C@H](Cc1cnc[nH]1)NC(=O)[C@H](C)NC(=O)[C@H](Cc1ccccc1)NC(=O)[C@H](Cc1ccc(O)cc1)NC(=O)[C@@H](NC(=O)[C@H](C)NC(=O)[C@H](CCC(=O)O)NC(=O)CCC(=O)O)C(C)C)C(=O)N[C@H](C(=O)N[C@@H](Cc1c[nH]c2ccccc12)C(=O)O)[C@@H](C)CC` (Suc-EAVYFAHLGIIW-OH), the Ki in assay [1] was 0.25 nM; on Endothelin-1 receptor, 96 nM.
As to `CC[C@H](C)[C@H](NC(=O)[C@H](CC(=O)O)NC(=O)[C@H](CC(C)C)NC(=O)[C@H](Cc1cnc[nH]1)NC(=O)CNC(=O)[C@H](Cc1ccccc1)NC(=O)[C@H](Cc1ccc(O)cc1)NC(=O)[C@@H](NC(=O)[C@H](C)NC(=O)[C@H](CCC(=O)O)NC(=O)CCC(=O)O)C(C)C)C(=O)N[C@H](C(=O)N[C@@H](Cc1c[nH]c2ccccc12)C(=O)O)[C@@H](C)CC` (Suc-EAVYFGHLDIIW-OH), the results for the Ki (in assay [1]; at Endothelin-1 receptor) were 5.3 nM and 2000 nM, respectively.
Consider `CC[C@H](C)[C@H](NC(=O)[C@H](CC(=O)O)NC(=O)[C@H](CC(C)C)NC(=O)[C@H](Cc1c[nH]cn1)NC(=O)[C@H](C)NC(=O)CNC(=O)[C@H](Cc1ccc(O)cc1)NC(=O)[C@@H](NC(=O)[C@H](C)NC(=O)[C@H](CCC(=O)O)NC(=O)CCC(=O)O)C(C)C)C(=O)N[C@H](C(=O)N[C@@H](Cc1c[nH]c2ccccc12)C(=O)O)[C@@H](C)CC` (Suc-EAVYGAHLDIIW-OH), for which the Ki is 260 nM in assay [1] and > 10000 nM on Endothelin-1 receptor.
As for `CC[C@H](C)[C@H](NC(=O)[C@H](CC(=O)O)NC(=O)[C@H](CC(C)C)NC(=O)[C@H](Cc1cnc[nH]1)NC(=O)[C@@H]1CSSC[C@H](N)C(=O)N[C@@H](CO)C(=O)N[C@H]2CSSC[C@H](NC(=O)[C@H](CCC(=O)O)NC(=O)[C@H](CCCCN)NC(=O)[C@H](CC(=O)O)NC(=O)[C@H](CCSC)NC(=O)[C@H](CC(C)C)NC(=O)[C@H](CO)NC(=O)[C@H](CO)NC2=O)C(=O)N[C@@H](C(C)C)C(=O)N[C@@H](Cc2ccc(O)cc2)C(=O)N[C@@H](Cc2ccccc2)C(=O)N1)C(=O)N[C@H](C(=O)N[C@@H](Cc1c[nH]c2ccccc12)C(=O)O)[C@@H](C)CC` [ENDOTHELIN], the inhibition constant Ki at Endothelin-1 receptor is 0.04 nM.
